{"source": "patent US12390435B2", "about": "“Electrophiles and electrophile pro-drugs as RAD51 inhibitors” (University of Pittsburgh—Of the Commonwealth System of …, priority 2018, dated 2025)", "key": {"[1]": {"system": "MCF-10A cells", "experiment": "Cell growth assay (FluoReporter dsDNA)", "assay_type": "cell-based", "details": "for IC50: Homo sapiens, MCF-10A", "experimental": "(§1) Cells were plated at a cell density of 5000 cells per well in 96-well plates. […] Cells were counted using the FluoReporter dsDNA quantitation kit (Molecular Probes) according to the manufacturer's instructions. Fluorescence was measured using a SpectraMax M2 plate reader (Molecular Devices). […] Three individual experiments were done (n=5/each), and statistical comparison between two cell lines across doses was determined by two-way analysis of variance followed by Tukey post-test."}, "[2]": {"system": "MCF7 cells", "experiment": "Cell growth assay (FluoReporter dsDNA)", "assay_type": "cell-based", "details": "Homo sapiens, 48 hr, 0-15 μM", "experimental": "as §1"}, "[3]": {"system": "MDA-MB-231 cells", "experiment": "Cell growth assay (FluoReporter dsDNA)", "assay_type": "cell-based", "details": "Homo sapiens, MDA-MB-231; 48 hr, 0-15 μM", "experimental": "as §1"}, "[4]": {"system": "MDA-MB-468 cells", "experiment": "Cell growth assay (FluoReporter dsDNA)", "assay_type": "cell-based", "details": "Homo sapiens, 48 hr, 0-15 μM", "experimental": "as §1"}, "[5]": {"system": "NF-κB target genes", "experiment": "qPCR / RT2 profiler array of NF-κB target genes", "assay_type": "cell-based, human", "details": "5 μM", "experimental": "Total RNA samples of tissues or cells were extracted using TRIZOL reagents according to the manufacturer's instructions (Invitrogen). Total RNA (1 μg) was reverse transcribed using the iScript cDNA kit (Bio-Rad) according to manufacturer instructions. cDNA (25 ng) was used for each subsequent quantitative real-time PCR (qRT-PCR) reaction. All qRT-PCR was performed on the StepOne PLUS PCR system (Thermo Fisher Scientific) using TaqMan gene expression assays. Fold change was calculated using the ΔΔCt method with 18S ribosomal RNA or human β-actin RNA serving as the internal control. Three individual experiments were done, and statistical significance was determined by one-way analysis of variance followed by Tukey post-test. […] The expression of 84 human NF-κB target genes was analyzed with 96-well plate format as instructed in the manufacturer's handbook (Qiagen). PCR amplification was conducted by StepOne PLUS PCR system and fold change of gene expression was calculated according to the manufacturer's instruction."}, "[6]": {"details": "intravenous and oral formulations; cited from earlier work"}, "[7]": {"target": "T1, RAD51 and ABL core (Homo sapiens, UniProt Q06609)", "T1 construct": "His; made in house; host or cells: E. coli BL21(DE3)pLysS", "T1 sequence (Q06609 whole entry)": "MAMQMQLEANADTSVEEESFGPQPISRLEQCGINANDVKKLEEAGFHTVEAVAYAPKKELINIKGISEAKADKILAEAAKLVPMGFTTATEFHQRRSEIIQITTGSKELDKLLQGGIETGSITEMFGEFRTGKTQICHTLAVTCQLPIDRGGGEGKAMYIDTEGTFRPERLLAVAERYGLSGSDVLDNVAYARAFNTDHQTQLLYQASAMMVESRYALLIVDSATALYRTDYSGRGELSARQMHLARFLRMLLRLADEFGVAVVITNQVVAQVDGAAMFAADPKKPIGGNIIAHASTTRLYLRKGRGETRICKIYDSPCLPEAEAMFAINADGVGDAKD", "experiment": "In vitro RAD51-ABL binding assay", "assay_type": "biochemical", "details": "purified proteins, 0, 100 or 500 nM, 1 h", "experimental": "FIGS. 3A-3I. […] FIG. 3A. […] FIG. 3B. […] FIG. 3C. […] Three independent experiments were quantified and analyzed by one-way ANOVA * p<0.05. FIG. 3D. […] FIG. 3E. […] FIG. 3F. […] Purified RAD51 and ABL core proteins were incubated with OA-NO2 at 0, 100 or 500 nM for 1 h and ABL was precipitated. The amount of bound RAD51 was detected by immunoblot. FIG. 3G. […] RAD51 interactions with ABL and phosphorylated RAD51 Y315 were probed by IP and immunoblot. FIG. 3H. […] Cells were incubated with biotinylated NO2-OA and then lysates were precipitated with streptavidin coated agarose and detected by immunoblot. FIG. 3I.\nRecombinant His-tagged RAD51 in the pET21a vector were transformed into E. coli BL21(DE3)pLysS cells (EMD Millipore) and purified."}, "[8]": {"system": "MDA-MB-231 xenograft tumor", "experiment": "MDA-MB-231 xenograft tumor growth, 7.5 mg/kg/day oral gavage", "assay_type": "in vivo, mice", "experimental": "MDA-MB-231 cells were injected into the fourth inguinal mammary fat pad of 6-week-old female athymic nude mice."}, "[9]": {"target": "T2, RAD51 (Homo sapiens, UniProt Q06609)", "T2 construct": "purchased Abcam", "T2 sequence (Q06609 whole entry)": "as above", "experiment": "RAD51 ssDNA binding, fluorescence polarization", "assay_type": "biochemical", "details": "5 or 10 μM, ATP and Alexa Fluor 488 DNA", "experimental": "Reactions were performed in black 96-well plates (Greiner) in 50 μL reaction volumes in 20 mM HEPES pH 7.5, 10 mM MgCl2, 0.25 μM BSA, 2% glycerol, 30 mM NaCl and 4% DMSO. […] 2 mM ATP and 100 nM 5′-Alexa Fluor 488 ssDNA poly-dT (Integrated DNA technologies) were added to the reaction and incubated for 90 min at 37° C. DNA binding was measured using fluorescence polarization (FP) on a Tecan Spark 20M (ex/em 480 nm/535 nm). Compound fluorescence quenching was detected as above in the absence of RAD51 protein."}, "[10]": {"system": "MDA-MB-468 cells", "experiment": "Matrigel cell invasion assay", "assay_type": "cell-based", "details": "NO2-OA/NO2-SA 5 μM, JSH-23 10 μM, TNFα 20 ng/mL, 24 hr", "experimental": "Cells were then suspended in migration media and placed in the top well of invasion chambers (EMD Millipore). Chemoattractant (5% FBS) was placed in the lower chamber for 24 hr at 37° C. to attract invasive cells. Cells were then harvested and invasion rates were determined according to manufacturer's protocol. Three individual experiments were done, and statistical comparison among treatments was determined by one-way analysis of variance followed by Tukey post-test."}, "[11]": {"system": "MCF-10A cells", "experiment": "RAD51 foci and γH2AX immunofluorescence after 5 Gy IR", "assay_type": "cell-based", "experimental": "FIGS. 1A-1K. […] FIG. 1A. […] FIG. 1C. […] EC50 values indicate average+SEM, n=3. FIGS. 1D-1F. […] FIG. 1G. […] FIGS. 1H-1I. […] Merged samples include DAPI stained nuclei (blue). […] The average percentages of cells with 5 or more foci from confocal z-stacked images are indicated from 0 or 5 Gy samples+SEM. FIG. 1J. […] Rad51 foci were counted and γH2AX intensities were assessed by ImageJ in 5Gy irradiated cells (histograms), that were analyzed by immunofluorescence (IF). FIG. 1K, upper part. […] FIG. 1K, lower part. Combination index (CI) was calculated by the Chou-Talalay method. CI<1 is synergistic. Data represent the mean from three independent experiments.\nTo analyze RAD51 foci formation, 10,000 cells were plated to CultureWell 16-well chambered cover glass (MIDSCI) coated with poly-L-lysine (Sigma) and incubated overnight in 5% FBS media. […] Cells were fixed with 10% formalin for 20 min at 4° C. and immunostained with RAD51 (Santa Cruz) or γH2AX (EMD Biosciences) antibodies. Z-stack images were acquired using a Nikon AIR confocal microscope with 60× oil objective and acquisition performed using NIS elements software. Quantification of z-stacks and foci were completed using ImageJ software."}}, "note": "Like-named read-outs stand apart in the source and are kept apart here.", "data": [{"smiles": "CCCCCCCCC(=CCCCCCCCC(=O)O)[N+](=O)[O-]", "note": "[NO2-OA, 10-nitro-octadec-9-enoic acid]", "values": [{"measurement": "IC50", "setting": "[1]; read-out: IC50 cell growth, only NO2-OA treatment, probenecid study, no probenecid, 0-25 μM 48 hr", "result": "14.2 ± 1.05", "unit": "µM"}, {"measurement": "IC50", "setting": "[1]; 48 hr, 0-15 μM, read-out: IC50 cell growth", "result": "7.7 ± 1.93", "unit": "µM"}, {"measurement": "decrease of IC50 by probenecid", "setting": "[1]; probenecid pretreated versus only NO2-OA", "result": 2, "unit": "fold"}, {"measurement": "IC50", "setting": "[2]", "result": "11.6 ± 3.59", "unit": "µM"}, {"measurement": "IC50", "setting": "[3]", "result": "2.7 ± 0.11", "unit": "µM"}, {"measurement": "IC50", "setting": "[4]", "result": "1.6 ± 0.11", "unit": "µM"}, {"measurement": "TNFα-induced expression of ICAM-1 and uPA genes", "setting": "[5]; MDA-MB-231 or MDA-MB-468 cells, TNFα 20 ng/mL", "result": "suppression of TNFα-induced expression of ICAM-1 and uPA genes"}, {"measurement": "mRNA expression of NF-κB target genes (PCR array)", "setting": "[5]; MDA-MB-468 cells, 24 hr", "result": "decreased the mRNA expression of multiple NF-κB target genes"}, {"measurement": "clinical safety", "setting": "[6]", "result": "safe"}, {"measurement": "RAD51-ABL core complex formation", "setting": "[7]", "result": "abolished"}, {"measurement": "xenograft tumor growth", "setting": "[8]; 7.5 mg/kg/day oral gavage, 27 days post-treatment, versus vehicle and NO2-SA", "result": "significantly reduced tumor growth"}, {"measurement": "body weight during treatment", "setting": "[8]; 7.5 mg/kg/day, 4 weeks", "result": "no weight loss"}, {"measurement": "overt toxicity", "setting": "[8]; 7.5 mg/kg/day, 4 weeks", "result": "no overt toxic effects"}, {"measurement": "tumor NO2-OA levels", "setting": "[8]; oral administration", "result": "increased murine tumor NO2-OA levels"}, {"measurement": "relative fluorescence polarization of RAD51 with ssDNA", "setting": "[9]", "result": "decreased the relative polarization of RAD51"}, {"measurement": "TNFα-induced invasion", "setting": "[10]", "result": "significantly inhibited"}, {"measurement": "RAD51 foci / γH2AX in irradiated benign cells", "setting": "[11]", "result": "no effect"}]}]}
